In US9180164B2, “Compounds and methods of modulating angiogenesis” (THE CLEVELAND CLINIC FOUNDATION, priority 2011, dated 2015):
Where no end group is shown, it is not given here. [ ]: non-standard residue; d: D form. Gla = N[C@@H](CC(C(=O)O)C(=O)O)C(=O)O

Experiments:
αvβ3 integrin [1] = molecular target: T1, αvβ3 integrin (Mus musculus, UniProt O54890+P43406); test: Fibrinogen binding assay (FACS); type: cell-based; details: WT EC; 20 ng/ml VEGF or 1 mM MnCl2
T1 construct: endogenous in cells; host or cells: primary mouse lung endothelial cells
T1 sequence (O54890 26-787): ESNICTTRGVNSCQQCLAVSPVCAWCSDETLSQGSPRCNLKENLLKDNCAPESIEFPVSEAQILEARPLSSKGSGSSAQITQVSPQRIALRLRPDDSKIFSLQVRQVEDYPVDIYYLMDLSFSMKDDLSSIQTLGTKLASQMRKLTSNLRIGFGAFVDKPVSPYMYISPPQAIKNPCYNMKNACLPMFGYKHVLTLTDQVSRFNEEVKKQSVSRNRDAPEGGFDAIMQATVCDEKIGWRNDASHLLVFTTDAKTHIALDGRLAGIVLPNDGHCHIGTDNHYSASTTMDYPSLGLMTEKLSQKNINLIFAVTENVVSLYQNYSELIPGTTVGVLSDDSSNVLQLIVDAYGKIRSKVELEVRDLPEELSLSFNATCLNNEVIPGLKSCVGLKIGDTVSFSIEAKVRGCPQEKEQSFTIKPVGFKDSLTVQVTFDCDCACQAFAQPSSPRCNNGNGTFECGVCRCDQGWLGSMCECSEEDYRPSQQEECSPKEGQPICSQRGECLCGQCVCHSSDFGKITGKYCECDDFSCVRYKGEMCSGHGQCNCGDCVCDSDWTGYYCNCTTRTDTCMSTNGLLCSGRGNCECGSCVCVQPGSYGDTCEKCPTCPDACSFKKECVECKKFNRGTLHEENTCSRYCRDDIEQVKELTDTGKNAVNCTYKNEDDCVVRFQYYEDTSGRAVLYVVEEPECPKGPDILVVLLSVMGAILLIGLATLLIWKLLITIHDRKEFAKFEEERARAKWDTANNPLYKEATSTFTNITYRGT
T1 sequence (P43406 31-885 limits assumed): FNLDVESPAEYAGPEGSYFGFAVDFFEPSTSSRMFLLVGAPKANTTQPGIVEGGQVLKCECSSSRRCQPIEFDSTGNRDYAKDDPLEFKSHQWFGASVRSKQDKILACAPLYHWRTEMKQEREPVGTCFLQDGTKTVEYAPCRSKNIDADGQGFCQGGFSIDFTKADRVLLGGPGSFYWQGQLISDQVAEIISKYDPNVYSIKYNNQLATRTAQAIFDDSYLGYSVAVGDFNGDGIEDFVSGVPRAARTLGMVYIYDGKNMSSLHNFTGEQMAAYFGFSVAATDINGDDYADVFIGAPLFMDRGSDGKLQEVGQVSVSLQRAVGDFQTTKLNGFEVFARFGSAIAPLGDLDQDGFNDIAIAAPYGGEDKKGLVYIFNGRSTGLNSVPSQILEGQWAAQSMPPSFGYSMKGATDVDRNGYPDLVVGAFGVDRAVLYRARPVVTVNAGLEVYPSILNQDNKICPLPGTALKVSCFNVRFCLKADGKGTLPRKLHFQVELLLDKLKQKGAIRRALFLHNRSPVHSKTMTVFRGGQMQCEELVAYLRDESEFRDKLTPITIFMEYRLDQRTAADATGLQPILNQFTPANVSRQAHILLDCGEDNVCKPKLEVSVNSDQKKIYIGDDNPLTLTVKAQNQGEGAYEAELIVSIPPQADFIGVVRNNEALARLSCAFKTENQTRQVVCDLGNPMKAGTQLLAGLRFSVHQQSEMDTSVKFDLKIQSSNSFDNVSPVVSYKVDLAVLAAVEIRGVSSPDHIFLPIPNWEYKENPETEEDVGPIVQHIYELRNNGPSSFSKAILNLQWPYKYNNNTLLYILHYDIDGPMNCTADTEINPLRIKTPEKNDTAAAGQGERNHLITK
T1 sequence (P43406 887-1044 limits assumed): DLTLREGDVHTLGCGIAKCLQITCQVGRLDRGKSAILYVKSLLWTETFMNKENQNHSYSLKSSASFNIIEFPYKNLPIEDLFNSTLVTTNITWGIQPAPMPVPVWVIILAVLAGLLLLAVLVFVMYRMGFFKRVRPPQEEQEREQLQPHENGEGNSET
Protocol: (§1) To assess fibrinogen binding, semiconfluent wild type and DiYF mouse lung endothelial cells were serum starved for 4 h and further induced with 20 ng/ml VEGF-165, 20 ng/ml b-FGF or 1 mm MnC12. Fluorescein isothiocyanate (FITC)-labeled fibrinogen was added at a final concentration of 200 nM for 45 min. […] Fluorescence-activated cell sorting (FACS) was performed using a FACS Calibur (Becton Dickinson, San Jose, Calif.) and data were analyzed using CellQuest software program.

αvβ3 integrin [2] = test: Fibrinogen binding assay (FACS); type: cell-based, mouse; details: DiYF EC; 20 ng/ml VEGF or 1 mM MnCl2
Protocol: as §1

αvβ3 integrin [3] = molecular target: T1, αvβ3 integrin; test: WOW-1 binding assay, mouse lung endothelial cells; type: cell-based; details: WT EC; 20 ng/ml VEGF or 1 mM MnCl2
Protocol: (§2) Wild type and DiYF mouse lung endothelial cells were serum starved for 4 h and further stimulated with 20 ng/ml VEGF-165, 20 ng/ml b-FGF or 1 mm MnC12 separately. WoW-1 Fab was added at a final concentration of […], followed by addition of Fluorescein isothiocyanate (FITC) conjugated goat anti-mouse IgG at 10 μg/ml. After 30 min cells were fixed with 3.7% formaldehyde/PBS for 15 min, washed twice with 1×PBS and FACS was performed using a FACS Calibur (Becton Dickinson, San Jose, Calif.) instrument and data were analyzed using CellQuest software program.

αvβ3 integrin [4] = test: WOW-1 binding assay, mouse lung endothelial cells; type: cell-based; details: DiYF EC; 20 ng/ml VEGF or 1 mM MnCl2
Protocol: as §2

[5] = test system: human melanoma cells (WM-164); test: Apoptosis in melanoma cells; type: cell-based; details: 100 μM
Protocol: To the examine the effect of beta-3 integrin cytoplasmic domain inhibitory peptides on tumor progressino we treated human melanoma cells (WM-164) with either 100 μM of control peptide or with equal amount of inhibiting peptide 07-240 (HIV-TAT-(NPLXK) (SEQ ID NO: 7)), inhibiting peptide 07-241 (HIV-TAT-(NPLDK) (SEQ ID NO: 9)), inhibiting peptide 07-243 (HIV-TAT-(NITXR) (SEQ ID NO: 8)), and inhibiting peptide 07-244 (HIV-TAT-(NITDR) (SEQ ID NO: 10)), where X is γ-carboxyglutamic acid.

WT mouse aortic rings = test: Mouse aortic ring angiogenesis; type: cell-based; details: 50 μM, in the presence of VEGF, 1 week
Protocol: Thoracic aortas from WT and DiYF mice were removed under aseptic conditions and spliced into 1 mm thick rings. Thoracic aortic rings were placed between two layers of growth factor depleted Matrigel and allowed to solidify at room temperature. Matrigels were overlaid with either with DMEM or endothelial growth medium with or without VEGF (40 ng/ml). Microvessel outgrowth was visualized by phase contrast microscopy and numbers of vessels growing from each aortic ring were counted and photographed every two days using Leica phase contrast microscope.
To examine the effect of cyclic inhibiting peptides on mouse aortic ring angiogensis, thoracic aortas from WT mice were removed under aseptic conditions and spliced into 1 mm thick rings. Thoracic aortic rings were placed between two layers of growth factor depleted Matrigel and allowed to solidify at room temperature. Matrigels were administered VEGF and 50 μM control peptides or with equal amounts of inhibiting peptide 1 (RR cyclic (NPLXK) (SEQ ID NO: 39), disulfide bridge cycle), inhibiting peptide 2 (RR cyclic (NITXR) (SEQ ID NO: 40), disulfide bridge cycle), inhibiting peptide 3 (RRRKKRKRRR cyclic (NPLXK) (SEQ ID NO: 41), disulfide bridge cycle), and inhibiting peptide 4 (RRRKKRKRRR cyclic (NITXR) (SEQ ID NO: 42), disulfide bridge cycle), where X is γ-carboxyglutamic acid. Microvessel outgrowth was visualized by phase contrast microscopy and numbers of vessels growing from each aortic ring were counted and photographed every two days using Leica phase contrast microscope after 1 week.

[6] = test system: subcutaneously implanted tumors; test: Progression of subcutaneously implanted tumors; type: in vivo, mice; details: 100 μM
Protocol: To the examine the effect of beta-3 integrin cytoplasmic domain inhibitory peptides on tumor progressino we subcutaneously implanted tumors in mice and then treated the mice with either 100 μM of control peptide or with equal amount of inhibiting peptide 1 (RR cyclic (NPLXK) (SEQ ID NO: 7), disulfide bridge cycle), inhibiting peptide 2 (RR cyclic (NITXR) (SEQ ID NO: 8), disulfide bridge cycle), inhibiting peptide 3 ([…] cyclic (NPLXK) (SEQ ID NO: 7), disulfide bridge cycle), inhibiting peptide 4 ([…] cyclic (NITXR) (SEQ ID NO: 8), disulfide bridge cycle), inhibiting peptide 5 (RR linear (NPLXK) (SEQ ID NO: 7)); and inhibiting peptide 6 (RR linear (NITXR) (SEQ ID NO: 8)), where X is γ-carboxyglutamic acid.

| Compound | apoptosis in melanoma cells compared to a control [5] | angiogenesis of the mouse aortic rings (microvessel outgrowth) (WT mouse aortic rings) | tumor progression compared to a control [6] | other results |
| --- | --- | --- | --- | --- |
| [Cl][Mn][Cl] [MnCl2] | – | – | – | increase of fibrinogen binding (αvβ3 integrin [1]): at least 40 fold; increase of fibrinogen binding (αvβ3 integrin [2]): 17 fold; increase in WOW-1 binding (αvβ3 integrin [3]): 30 fold; increase in WOW-1 binding (αvβ3 integrin [4]): 14 fold |
| HIV-TAT-(NITDR) (listed as Homo sapiens) [07-244] | induced apoptosis | – | – | – |
| HIV-TAT-(NITXR) ({HIV‑TAT}-NIT[Gla]R; not fully specified; printed as HIV-TAT-(NITXR); listed as Homo sapiens) [07-243, X is γ-carboxyglutamic acid] | induced apoptosis | – | – | – |
| HIV-TAT-(NPLDK) (listed as Homo sapiens) [07-241] | induced apoptosis | – | – | – |
| HIV-TAT-(NPLXK) ({HIV‑TAT}-NPL[Gla]K; not fully specified; printed as HIV-TAT-(NPLXK); listed as Homo sapiens) [07-240, X is γ-carboxyglutamic acid] | induced apoptosis | – | – | – |
| RR cyclic (NITXR) (RRNIT[Gla]R; disulfide (positions not given here); not fully specified; printed as RR cyclic (NITXR); also: cyclic, closure not given here; listed as Homo sapiens) [inhibiting peptide 2, X is γ-carboxyglutamic acid] | – | inhibited angiogenesis | substantially reduced tumor progression | – |
| RR cyclic (NPLXK) (RRNPL[Gla]K; disulfide (positions not given here); also: NPLXK part cyclic via disulfide bridge, no Cys in given letters; listed as Homo sapiens) [inhibiting peptide 1, X is γ-carboxyglutamic acid] | – | inhibited angiogenesis | substantially reduced tumor progression | – |
| RR linear (NITXR) (RRNIT[Gla]R; listed as Homo sapiens) [inhibiting peptide 6, X is γ-carboxyglutamic acid] | – | – | substantially reduced tumor progression | – |
| RRRKKRKRRR cyclic (NITXR) (RRRKKRKRRRNIT[Gla]R; disulfide (positions not given here); not fully specified; also: cyclic, closure not given here; listed as Homo sapiens) [inhibiting peptide 4, X is γ-carboxyglutamic acid] | – | inhibited angiogenesis | substantially reduced tumor progression | – |
| RRRKKRKRRR cyclic (NPLXK) (RRRKKRKRRRNPL[Gla]K; disulfide (positions not given here); not fully specified; listed as Homo sapiens) [inhibiting peptide 3, X is γ-carboxyglutamic acid] | – | inhibited angiogenesis | substantially reduced tumor progression | – |
